Measurements from patent US12077503B2, “Substituted cyclic amides and their use as herbicides” (FMC CORPORATION, priority 2015, dated 2024).

Experiments:
Format in all cases: in vivo
[1] = system: pigweed (Amaranthus retroflexus); test: Test A preemergence; conditions: Amaranthus retroflexus, pre-emergence, 240 h, preemergence, read-out: Pigweed plant response rating
[2] = system: giant foxtail (Setaria faberii); test: Test A preemergence; conditions: Setaria faberi, pre-emergence, 240 h, preemergence, read-out: Foxtail, Giant plant response rating
Outline: (§1)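 Seeded soil received test chemicals as a preemergence directed spray, and seedlings at one to two leaves, 2–10 cm tall, received them postemergence, in a non-phytotoxic, surfactant-containing solvent mixture. Pots were held in a greenhouse for approximately 10 d, then rated for injury from 0, no effect, to 100, complete control.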

Kochia (Kochia scoparia) = test: Test A preemergence; conditions: Bassia scoparia, pre-emergence, 240 h, preemergence, read-out: Kochia plant response rating
Outline: as §1

[3] = system: barnyardgrass (Echinochloa crus-galli); test: Test A preemergence; conditions: Echinochloa crus-galli, pre-emergence, 240 h, preemergence, read-out: Barnyardgrass plant response rating
Outline: as §1

[4] = system: ragweed (common ragweed, Ambrosia elatior); test: Test A preemergence; conditions: Ambrosia artemisiifolia, pre-emergence, 240 h, preemergence, read-out: Ragweed plant response rating
Outline: as §1

[5] = system: ryegrass, Italian (Italian ryegrass, Lolium multiflorum); test: Test A preemergence; conditions: Lolium multiflorum, pre-emergence, 240 h, preemergence, read-out: Ryegrass, Italian plant response rating
Outline: as §1

[6] = system: blackgrass (Alopecurus myosuroides); test: Test A postemergence; conditions: Alopecurus myosuroides, post-emergence, 240 h, postemergence, read-out: Blackgrass plant response rating
Outline: as §1

[7] = system: pigweed (Amaranthus retroflexus); test: Test A postemergence; conditions: Amaranthus retroflexus, post-emergence, 240 h, postemergence, read-out: Pigweed plant response rating
Outline: as §1

[8] = system: wheat (Triticum aestivum); test: Test A postemergence; conditions: Triticum aestivum, post-emergence, 240 h, postemergence, read-out: Wheat plant response rating
Outline: as §1

[9] = system: giant foxtail (Setaria faberii); test: Test A postemergence; conditions: Setaria faberi, post-emergence, 240 h, postemergence, read-out: Foxtail, Giant plant response rating
Outline: as §1

[10] = system: Galium (catchweed bedstraw, Galium aparine); test: Test A postemergence; conditions: Galium, post-emergence, 240 h, postemergence, read-out: Galium plant response rating
Outline: as §1

[11] = system: barnyardgrass (Echinochloa crus-galli); test: Test A postemergence; conditions: Echinochloa crus-galli, post-emergence, 240 h, postemergence, read-out: Barnyardgrass plant response rating
Outline: as §1

[12] = system: ragweed (common ragweed, Ambrosia elatior); test: Test A postemergence; conditions: Ambrosia artemisiifolia, post-emergence, 240 h, postemergence, read-out: Ragweed plant response rating
Outline: as §1

corn (Zea mays) = test: Test A postemergence; conditions: Zea mays, post-emergence, 240 h, postemergence, read-out: Corn plant response rating
Outline: as §1

[13] = system: ryegrass, Italian (Italian ryegrass, Lolium multiflorum); test: Test A postemergence; conditions: Lolium multiflorum, post-emergence, 240 h, postemergence, read-out: Ryegrass, Italian plant response rating
Outline: as §1

[14] = 125 g ai/ha, 0 to 100 scale where 0 is no effect and 100 is complete control, approx. 10 d
[15] = 500 g ai/ha, visual injury rating about 10 d after treatment, 0 to 100 scale (0 no effect, 100 complete control)
[16] = 125 g ai/ha, visual injury on 0 to 100 scale (0 no effect, 100 complete control), approx. 10 d
[17] = 500 g ai/ha, 0 to 100 scale, 0 is no effect, 100 is complete control

## Cc1cc([C@H]2CN(C)C(=O)[C@@H]2C(=O)Nc2cccc(F)c2F)ccc1Br [Compound 1099]
[1]; [14]
  pest or weed control at 125 g/ha: 0%
[1]; [15]
  pest or weed control at 500 g/ha: 30%
[2]; [14]
  pest or weed control at 125 g/ha: 90%
[2]; [15]
  pest or weed control at 500 g/ha: 90%
Kochia (Kochia scoparia); [14]
  pest or weed control at 125 g/ha: 60%
Kochia (Kochia scoparia); [15]
  pest or weed control at 500 g/ha: 70%
[3]; [14]
  pest or weed control at 125 g/ha: 90%
[3]; [15]
  pest or weed control at 500 g/ha: 90%
[4]; [14]
  pest or weed control at 125 g/ha: 20%
[4]; [15]
  pest or weed control at 500 g/ha: 60%
[5]; [14]
  pest or weed control at 125 g/ha: 50%
[5]; [15]
  pest or weed control at 500 g/ha: 70%
[6]; [16]
  pest or weed control at 125 g/ha: 20%
[6]; [17]
  pest or weed control at 500 g/ha: 40%
[7]; [16]
  pest or weed control at 125 g/ha: 20%
[7]; [17]
  pest or weed control at 500 g/ha: 50%
[8]; [16]
  plant injury at 125 g/ha: 20%
[8]; [17]
  plant injury at 500 g/ha: 50%
[9]; [16]
  pest or weed control at 125 g/ha: 80%
[9]; [17]
  pest or weed control at 500 g/ha: 80%
[10]; [16]
  pest or weed control at 125 g/ha: 50%
[10]; [17]
  pest or weed control at 500 g/ha: 60%
[11]; [16]
  pest or weed control at 125 g/ha: 70%
[11]; [17]
  pest or weed control at 500 g/ha: 80%
[12]; [16]
  pest or weed control at 125 g/ha: 0%
[12]; [17]
  pest or weed control at 500 g/ha: 40%
Corn (Zea mays); [16]
  plant injury at 125 g/ha: 50%
Corn (Zea mays); [17]
  plant injury at 500 g/ha: 60%
[13]; [16]
  pest or weed control at 125 g/ha: 40%
[13]; [17]
  pest or weed control at 500 g/ha: 60%
